Data published in ChEMBL document CHEMBL3044615, “Synthesis and in vitro antimicrobial activity of benzo[b][1,4]thiazin-3(4H)-ones via smiles rearrangement” (2011).
Values after ≈ are worked out from the molar mass of the structure shown. Active and inactive are the calls of the source. The calls are words filed in the database; no cut-off is given here.

What was measured:
Format in all cases: functional
Micrococcus luteus = assay: Antibacterial activity against Micrococcus luteus NCTC 2665 after 24 hr by two-fold microdilution technique; conditions: NCTC 2665, 24 h
Candida albicans = assay: Microbiostatic activity against Candida albicans ATCC 76615 after 48 hr by two-fold microdilution technique
Saccharomyces cerevisiae = assay: Microbiostatic activity against Saccharomyces cerevisiae ATCC 74212 after 48 hr by two fold microdilution technique
Escherichia coli = assay: Antibacterial activity against Escherichia coli ATCC 25922 after 24 hr by two-fold microdilution technique; conditions: ATCC 25922, 24 h
Staphylococcus aureus = assay: Antibacterial activity against Staphylococcus aureus ATCC 25923 after 24 hr by two fold microdilution technique; conditions: ATCC 25923, 24 h
Proteus vulgaris = assay: Antibacterial activity against Proteus vulgaris ATCC 6896 after 24 hr by two-fold microdilution technique; conditions: ATCC 6896, 24 h
Pseudomonas aeruginosa = assay: Antibacterial activity against Pseudomonas aeruginosa ATCC 27853 after 24 hr by two-fold microdilution technique; conditions: ATCC 27853, 24 h
Bacillus subtilis = assay: Antibacterial activity against Bacillus subtilis ATCC 6633 after 24 hr by two fold microdilution technique; conditions: ATCC 6633, 24 h

| SMILES | MIC (Micrococcus luteus) [µg/mL] | MIC (Candida albicans; ATCC 76615, 48 h) [µg/mL] | MIC (Saccharomyces cerevisiae; ATCC 74212, 48 h) [µg/mL] | MIC (Escherichia coli) [µg/mL] | MIC (Staphylococcus aureus) [µg/mL] | MIC (Proteus vulgaris) [µg/mL] | MIC (Pseudomonas aeruginosa) [µg/mL] | MIC (Bacillus subtilis) [µg/mL] | MIC (Candida albicans) | MIC (Saccharomyces cerevisiae) |
| --- | --- | --- | --- | --- | --- | --- | --- | --- | --- | --- |
| CCCCCCN1C(=O)CSc2cc(Cl)ccc21 | 64 (≈ 225 µM) | 128 (≈ 451 µM) | 256 (≈ 902 µM) | 32 (≈ 113 µM) | 32 (≈ 113 µM) | 64 (≈ 225 µM) | 64 (≈ 225 µM) | 32 (≈ 113 µM) |  |  |
| CC(C)(O/N=C(\C(=O)N[C@@H]1C(=O)N2C(C(=O)[O-])=C(C[n+]3ccccc3)CS[C@H]12)c1csc(N)n1)C(=O)O [CEFTAZIDIME] | 16 (≈ 29.3 µM) |  |  | 4 (≈ 7.32 µM) | 4 (≈ 7.32 µM) | 4 (≈ 7.32 µM) | 128 (≈ 234 µM) | 2 (≈ 3.66 µM) | inactive | inactive |
| O=C1CSc2cc(Cl)ccc2N1C1CCCCC1 | 16 (≈ 56.8 µM) | 64 (≈ 227 µM) | 128 (≈ 454 µM) | 32 (≈ 114 µM) | 16 (≈ 56.8 µM) | 32 (≈ 114 µM) | 32 (≈ 114 µM) | 32 (≈ 114 µM) |  |  |
| Clc1ccccc1C(c1ccccc1)(c1ccccc1)n1ccnc1 [CLOTRIMAZOLE] | 512 (≈ 1480 µM) | 2 (≈ 5.8 µM) | 4 (≈ 11.6 µM) | 512 (≈ 1480 µM) | 512 (≈ 1480 µM) | 512 (≈ 1480 µM) | 512 (≈ 1480 µM) | 512 (≈ 1480 µM) |  |  |
| O=C1CSc2cc(Cl)ccc2N1Cc1ccccc1 | 16 (≈ 55.2 µM) |  |  | 32 (≈ 110 µM) | 64 (≈ 221 µM) | 32 (≈ 110 µM) | 64 (≈ 221 µM) | 64 (≈ 221 µM) | inactive | inactive |
| CCCCCCN1C(=O)CSc2cccc(Cl)c21 | 32 (≈ 113 µM) |  |  | 32 (≈ 113 µM) | 32 (≈ 113 µM) | 32 (≈ 113 µM) | 64 (≈ 225 µM) | 32 (≈ 113 µM) | inactive | inactive |
| O=C1CSc2cc(Cl)ccc2N1CC1CCCO1 (stereo not given) | 16 (≈ 56.4 µM) | 128 (≈ 451 µM) | 128 (≈ 451 µM) | 32 (≈ 113 µM) | 32 (≈ 113 µM) | 32 (≈ 113 µM) | 64 (≈ 226 µM) | 64 (≈ 226 µM) |  |  |
| CCCCCCN1C(=O)CSc2ccc(Cl)cc21 | 16 (≈ 56.4 µM) |  |  | 32 (≈ 113 µM) | 32 (≈ 113 µM) | 32 (≈ 113 µM) | 64 (≈ 225 µM) | 32 (≈ 113 µM) | inactive | inactive |
| CN[C@@H]1[C@H](O[C@H]2[C@H](O[C@H]3[C@H](O)[C@@H](O)[C@H](N=C(N)N)[C@@H](O)[C@@H]3N=C(N)N)O[C@@H](C)[C@]2(O)C=O)O[C@@H](CO)[C@H](O)[C@H]1O [STREPTOMYCIN] | 8 (≈ 13.8 µM) |  |  | 4 (≈ 6.88 µM) | 2 (≈ 3.44 µM) | 4 (≈ 6.88 µM) | 2 (≈ 3.44 µM) | 32 (≈ 55 µM) | inactive | inactive |
| O=C1CSc2cccc(Cl)c2N1C1CCCCC1 | 16 (≈ 56.8 µM) | 64 (≈ 227 µM) | 128 (≈ 454 µM) | 32 (≈ 114 µM) | 16 (≈ 56.8 µM) | 32 (≈ 114 µM) | 32 (≈ 114 µM) | 32 (≈ 114 µM) |  |  |
| O=C1CSc2cccc(Cl)c2N1CC1CCCO1 (stereo not given) | 32 (≈ 113 µM) | 64 (≈ 226 µM) | 128 (≈ 451 µM) | 32 (≈ 113 µM) | 32 (≈ 113 µM) | 32 (≈ 113 µM) | 64 (≈ 226 µM) | 32 (≈ 113 µM) |  |  |
| O=C1CSc2ccc(Cl)cc2N1CC1CCCO1 (stereo not given) | 32 (≈ 113 µM) | 64 (≈ 226 µM) | 128 (≈ 451 µM) | 64 (≈ 226 µM) | 64 (≈ 226 µM) | 64 (≈ 226 µM) | 128 (≈ 451 µM) | 32 (≈ 113 µM) |  |  |
| O=C1CSc2ccc(Cl)cc2N1C1CCCCC1 | 32 (≈ 114 µM) | 256 (≈ 908 µM) |  | 64 (≈ 227 µM) | 32 (≈ 114 µM) | 64 (≈ 227 µM) | 128 (≈ 454 µM) | 64 (≈ 227 µM) |  | inactive |
| O=C1CSc2c(Cl)cccc2N1Cc1ccccc1 | 32 (≈ 110 µM) | 128 (≈ 442 µM) | 64 (≈ 221 µM) | 64 (≈ 221 µM) | 64 (≈ 221 µM) | 64 (≈ 221 µM) | 32 (≈ 110 µM) | 64 (≈ 221 µM) |  |  |
| O=C1CSc2c(Cl)cccc2N1CC1CCCO1 (stereo not given) | 32 (≈ 113 µM) | 128 (≈ 451 µM) | 128 (≈ 451 µM) | 64 (≈ 226 µM) | 32 (≈ 113 µM) | 64 (≈ 226 µM) | 128 (≈ 451 µM) | 16 (≈ 56.4 µM) |  |  |
| O=C1CSc2c(Cl)cccc2N1C1CCCCC1 | 32 (≈ 114 µM) | 128 (≈ 454 µM) | 64 (≈ 227 µM) | 32 (≈ 114 µM) | 16 (≈ 56.8 µM) | 32 (≈ 114 µM) | 64 (≈ 227 µM) | 32 (≈ 114 µM) |  |  |
| CC1(C)S[C@@H]2[C@H](NC(=O)[C@H](N)c3ccccc3)C(=O)N2[C@H]1C(=O)O [AMPICILLIN] | 16 (≈ 45.8 µM) |  |  | 16 (≈ 45.8 µM) | 2 (≈ 5.72 µM) | 16 (≈ 45.8 µM) | 128 (≈ 366 µM) | 1 (≈ 2.86 µM) | inactive | inactive |
| CCCCCCN1C(=O)CSc2c(Cl)cccc21 | 32 (≈ 113 µM) | 64 (≈ 225 µM) | 64 (≈ 225 µM) | 32 (≈ 113 µM) | 32 (≈ 113 µM) | 16 (≈ 56.4 µM) | 32 (≈ 113 µM) | 16 (≈ 56.4 µM) |  |  |
| O=C1CSc2cccc(Cl)c2N1Cc1ccccc1 | 32 (≈ 110 µM) |  | 128 (≈ 442 µM) | 16 (≈ 55.2 µM) | 32 (≈ 110 µM) | 64 (≈ 221 µM) | 32 (≈ 110 µM) | 32 (≈ 110 µM) | inactive |  |
| O=C1CSc2ccc(Cl)cc2N1Cc1ccccc1 | 16 (≈ 55.2 µM) | 64 (≈ 221 µM) | 64 (≈ 221 µM) | 32 (≈ 110 µM) | 16 (≈ 55.2 µM) | 32 (≈ 110 µM) | 32 (≈ 110 µM) | 32 (≈ 110 µM) |  |  |
